Results on one compound are retold here after doi:10.1101/2020.10.16.342121v1 (biorxiv, 2020).

Assay [1] deals with T1, human serum albumin (HSA) (Homo sapiens, UniProt P02768). The experiment in a line: thermal denaturation followed by intrinsic fluorescence. To be noted: 10 mM PBS pH 7.4, 0.4 μM HSA, 40 μM DHLA, 37-87 °C. Type of assay: binding.
The target of assay [2] is T1, human serum albumin (HSA). The experiment in a line: intrinsic fluorescence quenching titration. It is filed as binding.

T1 sequence (P02768 25-609): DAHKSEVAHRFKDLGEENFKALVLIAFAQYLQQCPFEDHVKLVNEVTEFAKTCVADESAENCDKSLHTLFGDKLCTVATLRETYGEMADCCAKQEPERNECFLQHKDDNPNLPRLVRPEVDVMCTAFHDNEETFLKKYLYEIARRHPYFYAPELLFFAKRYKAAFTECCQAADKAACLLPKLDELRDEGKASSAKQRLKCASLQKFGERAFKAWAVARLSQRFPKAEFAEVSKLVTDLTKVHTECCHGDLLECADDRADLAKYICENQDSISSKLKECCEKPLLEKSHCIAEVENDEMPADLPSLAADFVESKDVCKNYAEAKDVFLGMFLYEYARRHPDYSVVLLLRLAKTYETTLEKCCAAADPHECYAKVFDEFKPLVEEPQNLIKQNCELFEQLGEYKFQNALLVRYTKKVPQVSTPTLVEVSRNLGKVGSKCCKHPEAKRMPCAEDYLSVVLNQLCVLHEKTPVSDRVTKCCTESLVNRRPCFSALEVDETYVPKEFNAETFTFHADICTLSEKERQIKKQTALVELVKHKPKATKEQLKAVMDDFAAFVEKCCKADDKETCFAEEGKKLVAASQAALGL

In the case of `O=C(O)CCCC[C@@H](S)CCS` [dihydro-alpha-lipoic acid], the “Tm with ligand (HSA alone 68 °C)” value in assay [1] came out at 70 °C. Also, the Kd in assay [2] is 125 µM.

As usually defined, the Kd is a measure of binding affinity in units of concentration. A lower Kd goes with tighter binding.
